Several values for one entry are separate records, joined by “and”; a condition that tells them apart may be missing. Equal values may be shown once. Numbers after ± are expanded uncertainties.
Assay: molar heat capacity at constant pressure
Conditions: 101.33 kPa, Crystal, Small sample (50 mg) DSC

[Pb].[Pb].[Pb].[U] [uranium trilead]
Conditions | molar heat capacity at constant pressure
316.34 K | 102.56 ± 1.8 J/K/mol and 102.48 ± 1.8 J/K/mol
326.01 K | 102.76 ± 1.8 J/K/mol and 102.64 ± 1.8 J/K/mol
336.81 K | 102.96 ± 1.8 J/K/mol and 102.76 ± 1.8 J/K/mol
346.52 K | 102.92 ± 1.8 J/K/mol and 103.16 ± 1.8 J/K/mol
356.26 K | 103 ± 1.8 J/K/mol and 103.32 ± 1.8 J/K/mol
366.02 K | 103.12 ± 1.8 J/K/mol and 103.44 ± 1.8 J/K/mol
375.81 K | 103.24 ± 1.8 J/K/mol and 103.6 ± 1.8 J/K/mol
385.63 K | 103.36 ± 1.8 J/K/mol and 103.72 ± 1.8 J/K/mol
395.49 K | 103.44 ± 1.8 J/K/mol and 103.88 ± 1.8 J/K/mol
405.37 K | 103.52 ± 1.8 J/K/mol and 104 ± 1.8 J/K/mol
415.29 K | 104.12 ± 1.8 J/K/mol and 103.64 ± 1.8 J/K/mol
425.25 K | 104.24 ± 1.8 J/K/mol and 103.72 ± 1.8 J/K/mol
435.23 K | 104.32 ± 1.8 J/K/mol and 103.8 ± 1.8 J/K/mol
445.22 K | 104.44 ± 1.8 J/K/mol and 103.88 ± 1.8 J/K/mol
455.21 K | 104.56 ± 1.8 J/K/mol and 103.96 ± 1.8 J/K/mol
465.2 K | 104.64 ± 1.8 J/K/mol and 104 ± 1.8 J/K/mol
475.19 K | 104.72 ± 1.8 J/K/mol and 104.08 ± 1.8 J/K/mol
485.18 K | 104.8 ± 1.8 J/K/mol and 104.16 ± 1.8 J/K/mol
495.17 K | 104.92 ± 1.8 J/K/mol and 104.2 ± 1.8 J/K/mol
505.15 K | 105 ± 1.8 J/K/mol and 104.28 ± 1.8 J/K/mol
515.13 K | 105.08 ± 1.8 J/K/mol and 104.32 ± 1.8 J/K/mol
525.11 K | 105.12 ± 1.8 J/K/mol and 104.4 ± 1.8 J/K/mol
535.04 K | 105.2 ± 1.8 J/K/mol and 104.44 ± 1.8 J/K/mol
544.83 K | 105.28 ± 1.8 J/K/mol and 104.48 ± 1.8 J/K/mol
554.76 K | 105.36 ± 1.8 J/K/mol and 104.52 ± 1.8 J/K/mol
564.58 K | 105.4 ± 1.8 J/K/mol and 104.56 ± 1.8 J/K/mol
574.42 K | 105.48 ± 1.8 J/K/mol and 104.64 ± 1.8 J/K/mol
584.3 K | 105.52 ± 1.8 J/K/mol and 104.68 ± 1.8 J/K/mol
594.25 K | 105.6 ± 1.8 J/K/mol and 104.72 ± 1.8 J/K/mol
604.13 K | 105.64 ± 1.8 J/K/mol and 104.76 ± 1.8 J/K/mol

From the NIST ThermoML archive (doi:10.1016/j.tca.2016.05.012)
